Several values for one entry are separate records, joined by “and”; a condition that tells them apart may be missing. Equal entries are not always repeated.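 Growth conditions: 96-well plates. Treatment: test compound, 48 hours, 5 concentrations. Analysis: linear interpolation between bracketing concentrations; unreached endpoints set to highest concentration. GI50 = concentration required for 50% inhibition of growth.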 Activity calls are given as the source filed them. Cut-off read from the data, not from the text of the source: active = GI50 up to about 1.1 µM and inactive = higher.
Assays:
Assay in all cases: growth of human tumour cells (NCI), 48 h
786-0 = system: 786-0
A549 = system: A549
ACHN = system: ACHN
BT-549 = system: BT-549
CAKI-1 = system: CAKI-1
CCRF-CEM = system: CCRF-CEM
COLO 205 = system: COLO 205
DU-145 = system: DU-145
EKVX = system: EKVX
HCC 2998 = system: HCC 2998
HCT-116 = system: HCT-116
HCT-15 = system: HCT-15
HL-60 = system: HL-60
HOP-62 = system: HOP-62
HOP-92 = system: HOP-92
HT-29 = system: HT-29
IGROV-1 = system: IGROV-1
K562 = system: K562
KM12 = system: KM12
LOX IMVI = system: LOX IMVI
M14 = system: M14
MCF7 = system: MCF7
MDA-MB-231 = system: MDA-MB-231
MDA-MB-435 = system: MDA-MB-435
MDA-N = system: MDA-N
MOLT-4 = system: MOLT-4
Malme-3M = system: Malme-3M
NCI-H226 = system: NCI-H226
NCI-H23 = system: NCI-H23
NCI-H460 = system: NCI-H460
NCI-H522 = system: NCI-H522
NCI/ADR-RES = system: NCI/ADR-RES
OVCAR-3 = system: OVCAR-3
OVCAR-4 = system: OVCAR-4
OVCAR-5 = system: OVCAR-5
OVCAR-8 = system: OVCAR-8
PC-3 = system: PC-3
RPMI-8226 = system: RPMI-8226
RXF 393 = system: RXF 393
SF-268 = system: SF-268
SF-295 = system: SF-295
SF-539 = system: SF-539
SK-MEL-28 = system: SK-MEL-28
SK-MEL-2 = system: SK-MEL-2
SK-MEL-5 = system: SK-MEL-5
SK-OV-3 = system: SK-OV-3
SN12C = system: SN12C
SNB-19 = system: SNB-19
SNB-75 = system: SNB-75
SR = system: SR
SW-620 = system: SW-620
T47D = system: T47D
TK-10 = system: TK-10
U-251 = system: U-251
UACC-257 = system: UACC-257
UO-31 = system: UO-31
UACC-62 = system: UACC-62

Cc1cc(C)nc(NS(=O)(=O)c2ccc(NNc3c4ccccc4nc4c(C(=O)Nc5ccc(S(=O)(=O)N=C(N)N)cc5)cccc34)cc2)n1
GI50 (786-0): 65.5 µM (inactive)
GI50 (A549): > 100 µM (inactive)
GI50 (ACHN): 45 µM (inactive)
GI50 (BT-549): 56 µM (inactive)
GI50 (CAKI-1): > 100 µM (inactive)
GI50 (CCRF-CEM): 34.6 µM (inactive)
GI50 (COLO 205): 36.1 µM (inactive)
GI50 (DU-145): 65.8 µM (inactive)
GI50 (EKVX): 30.5 µM (inactive)
GI50 (HCC 2998): 39.3 µM (inactive)
GI50 (HCT-116): 48 µM (inactive)
GI50 (HCT-15): 63.4 µM
GI50 (HL-60): 37.5 µM (inactive)
GI50 (HOP-62): > 100 µM (inactive)
GI50 (HOP-92): 35.6 µM (inactive)
GI50 (HT-29): 26.6 µM (inactive)
GI50 (IGROV-1): 53 µM (inactive)
GI50 (K562): 31.4 µM (inactive)
GI50 (KM12): 34.7 µM (inactive)
GI50 (LOX IMVI): 33.7 µM (inactive)
GI50 (M14): 97.9 µM (inactive)
GI50 (MCF7): 76 µM (inactive)
GI50 (MDA-MB-231): 49.1 µM (inactive)
GI50 (MDA-MB-435): 39.1 µM (inactive)
GI50 (MDA-N): 49.5 µM (inactive)
GI50 (MOLT-4): 34.9 µM (inactive)
GI50 (Malme-3M): 76 µM (inactive)
GI50 (NCI-H226): 49.7 µM (inactive)
GI50 (NCI-H23): 55.8 µM (inactive)
GI50 (NCI-H460): 47.4 µM (inactive)
GI50 (NCI-H522): 36.6 µM (inactive)
GI50 (NCI/ADR-RES): > 100 µM (inactive)
GI50 (OVCAR-3): 31.8 µM (inactive)
GI50 (OVCAR-4): 65.2 µM (inactive)
GI50 (OVCAR-5): 25.1 µM (inactive)
GI50 (OVCAR-8): 52.4 µM (inactive)
GI50 (PC-3): 31.6 µM (inactive)
GI50 (RPMI-8226): 93.3 µM (inactive)
GI50 (RXF 393): > 100 µM (inactive)
GI50 (SF-268): 45 µM (inactive)
GI50 (SF-295): 77.3 µM (inactive)
GI50 (SF-539): 67 µM (inactive)
GI50 (SK-MEL-28): 17.6 µM (inactive)
GI50 (SK-MEL-2): 3.64 µM (inactive)
GI50 (SK-MEL-5): 53.1 µM (inactive)
GI50 (SK-OV-3): 24.8 µM (inactive)
GI50 (SN12C): 64.1 µM (inactive)
GI50 (SNB-19): 61.1 µM (inactive)
GI50 (SNB-75): 28.4 µM (inactive)
GI50 (SR): 27.5 µM (inactive)
GI50 (SW-620): 71.6 µM (inactive)
GI50 (T47D): 25.8 µM (inactive)
GI50 (TK-10): > 100 µM (inactive)
GI50 (U-251): 25.4 µM (inactive)
GI50 (UACC-257): > 100 µM (inactive)
GI50 (UO-31): 27.7 µM (inactive)

C#CC1(O)C(COP(=O)(O)OC(COCCCCCCCCCCCCCCCCCC)COP(=O)(O)OCC2OC(n3cc(F)c(=O)[nH]c3=O)CC2O)OC(n2ccc(N)nc2=O)C1O (stereo unspecified)
GI50 (A549): < 28.8 nM (active) and 29.7 nM (active)
GI50 (ACHN): < 36.1 nM (active) and 59.2 nM (active)
GI50 (BT-549): 752 nM (active) and 466 nM (active)
GI50 (CAKI-1): 48.5 nM (active) and 54.8 nM (active)
GI50 (COLO 205): 244 nM (active) and 211 nM (active)
GI50 (HCC 2998): 1.26 µM (inactive)
GI50 (HOP-62): 434 nM (active) and 399 nM (active)
GI50 (HT-29): 361 nM (active) and 313 nM (active)
GI50 (K562): < 31.3 nM (active) and 27.5 nM (active)
GI50 (KM12): 454 nM (active) and 252 nM (active)
GI50 (MCF7): < 24.7 nM (active) and < 18.3 nM (active)
GI50 (MDA-MB-231): 1.1 µM (active) and 731 nM (active)
GI50 (MDA-MB-435): 514 nM (active) and 376 nM (active)
GI50 (MDA-N): 418 nM (active) and 293 nM (active)
GI50 (NCI-H226): 471 nM (active) and 299 nM (active)
GI50 (NCI-H460): < 21.3 nM (active) and < 13.9 nM (active)
GI50 (NCI/ADR-RES): 209 nM (active) and 265 nM (active)
GI50 (OVCAR-3): 1.04 µM (active) and 1.93 µM (inactive)
GI50 (RPMI-8226): 26.2 nM (active) and < 16.3 nM (active)
GI50 (SF-268): < 27.2 nM (active) and 48.8 nM (active)
GI50 (SF-539): < 21.3 nM (active) and < 23.3 nM (active)
GI50 (SK-MEL-5): 621 nM (active) and 467 nM (active)
GI50 (SK-OV-3): 1.32 µM (inactive) and 2.43 µM (inactive)
GI50 (SN12C): 0.0818 µM (active)
GI50 (SNB-19): 152 nM (active) and 277 nM (active)
GI50 (SR): < 13.8 nM (active) and < 15.7 nM (active)
GI50 (SW-620): 114 nM (active) and 91.8 nM (active)
GI50 (TK-10): 200 nM (active) and 124 nM (active)
GI50 (UACC-257): 1.15 µM (inactive) and 1.92 µM (inactive)
GI50 (UACC-62): 546 nM (active) and 277 nM (active)

Reference: ChEMBL document CHEMBL1201862, “PubChem BioAssay data set” (2004)
